Data on four molecules can be found in patent US12133855B2, “Lipid-like nanocomplexes and uses thereof” (Trustees of Tufts College, priority 2018, dated 2024).

In series [1] the test system is Jurkat (human T lymphocyte cells). As to the kind of experiment: GFP mRNA delivery (GFP+ cells). It is filed as cell-based. The following applies: LNP/mRNA=10/1, [mRNA]=0.86 μg mL^−1, 24 h. How it is done: To examine the delivery spectrum of the newly developed LNPs, the GFP mRNA loaded OCholB LNPs were then challenged against other four types of cell lines. B16F10 (mouse melanoma cells), HEK 293 (human embryonic kidney cells), NIH 3T3 (mouse embryonic fibroblast cells) and Jurkat (human T lymphocyte cells) cells were tested (LNP/mRNA=10/1; [mRNA]=0.86 μg mL^−1; 24 h exposure) and the results are shown in FIG. 14D. As the positive control, Lpf2k turned out to be very efficient to deliver GFP mRNA into B16F10 (63.2% of GFP^+ cells), HEK 293 (80.1%) and NIH 3T3 (70.1%) cells, while slightly less efficient to Jurkat cell (28.7%), which is usually considered to be one of the most difficult-to-transfect cell lines. […] For example, 63.0%, 60.9%, 54.1% and 50.1% of GFP^+ cells were determined from mRNA/75-OCholB treated B16F10, HEK 293, NIH 3T3 and Jurkat cells; and the numbers for mRNA/76-OCholB treated cells were 70.7%, 75.8%, 24.1% and 7.7%, respectively. It was obvious that not only the types of lipidoids, but also the target cell lines could have huge impacts on the delivery efficacy. Overall, the positive control, Lpf2k, is a relatively high-activity broad-spectrum transfection reagent; most of the OCholB LNPs (6 out of 9) are also effective broad-spectrum transfection reagents under the tested conditions. […] It was expected that through further formulation optimization, such as adding excipients (helper lipids like small molecular phospholipids (e.g. DOPE and DSPC) and macromolecules lipids (e.g. PEG-DSPE and PEG-Ceramide)) into the LNPs and/or using more controllable self-assembly procedures, improved transfection efficiency of the fully substituted OCholB LNPs could be achieved.

The test system of another series is HeLa-DsRed cells. It is filed as cell-based. As to conditions: for cell viability: 8 h exposure, MTT after 24 h; for cell morphology changes: bright field images. How it is done:
All experiments were performed in quadruplicate.
In this context, the internalization mechanism of the (−30)GFP-Cre/LNPs complexes was studied at first, by introducing different endocytosis inhibitors, i.e., sucrose (clathrin-mediated endocytosis inhibitor), methyl-β-cyclodextrin (M-β-CD, cholesterol-depleting agent), dynasore (dynamin II inhibitor) and nystatin (caveolin-mediated endocytosis inhibitor), following our previously reported procedures. […] Comparing to other combinatorial library studies, it is clear that even loaded with same cargoes and tested against same cell line, different lipidoids with different chemical structures could be internalized through very distinct pathways. Next, the genome-editing efficiencies of (−30)GFP-Cre/LNPs were determined by flow cytometry after 24 h of incubation (with 8 h of (−30)GFP-Cre/LNPs complex exposure). Three different concentrations of protein/lipidoid complexes (25 nM/1.7 μg mL^−1, 50 nM/3.4 μg mL^−1, and 100 nM/6.6 μg mL^−1) were tested for each lipidoid nanoparticle. […] For example, the DsRed^+ cells were recorded as 10.5%/24.9%/88.9%, 13.5%/55.4%/88.8%, and 27.7%/47.8%/94.7% for (−30)GFP-Cre loaded 75-OCholB, 76-OCholB and 77-OCholB, respectively, at the protein concentration of 25, 50 and 100 nM. […] Then, the cytotoxicity profiles of (−30)GFP-Cre/LNPs, (−30)GFP-Cre/Lpf2k and naked (−30)GFP-Cre at different concentrations against HeLa-DsRed cells (8 h of exposure; (−30)GFP-Cre/LNPs=25 nM/1.7 μg mL^−1, 50 nM/3.4 μg mL^−1, and 100 nM/6.6 μg mL^−1) are measured using MTT assay after 24 h of incubation. […] For (−30)GFP-Cre/75-OCholB treated cells, the viabilities were determined to be 95.5%, 91.8% and 83.1%, at the protein concentration of 25, 50 and 100 nM, respectively; the numbers for (−30)GFP-Cre/76-OCholB and (−30)GFP-Cre/77-OCholB are 97.8%/98.2%/97.2 and 100.9%/96.6%/98.6%. […] Meanwhile, the morphology changes of HeLa-DsRed cell treated with different nanoparticle formulations were studied and the results are shown in FIG. 15E. […] Samples found in upper left quadrant are non-toxic and inefficient for delivery; samples in lower left quadrant are toxic and inefficient; samples in lower right quadrant are efficient but toxic; samples in upper right quadrant are non-toxic and efficient, which would be top candidates for further study. It is clear that Lpf2k (shown in dotted purple circle) at high concentration is relatively efficient for genome editing, while also toxic to the target cells. On the other hand, most of the (−30)GFP-Cre loaded OCholB LNPs are almost non-toxic when compared to (−30)GFP-Cre/Lpf2k, similar to naked (−30)GFP-Cre protein. 87-OCholB, 90-OCholB and 304-OCholB (shown in dotted dark blue circle) are less efficient for genome-editing; while high genome editing efficacy and excellent tolerability were achieved by using 75-OCholB, 76-OCholB and 77-OCholB (shown in dotted green circle).

Series [2] in a line: In vivo toxicity of blank OCholB LNPs (body weight, serum biochemistry). The following applies: blank LNPs 50 μg per injection, tail vein; for serum concentrations of creatinine, urea, AST and ALT: day 1 and 5, blood at day 14; for body weight vs untreated control group: day 1 and day 5, 14 days. Set-up: species or system Balb/c mice. On the procedure: For in vivo toxicity studies, the body weights of untreated and nanoparticles injected Balb/c mice (housed in a temperature and humidity controlled facility with a 12 h light/dark cycle) were measured at day 1, 3, 5, 7, 9, 11, 13 and 14. Biological functions of kidney and liver were examined by the serum biochemical tests and concentrations of creatinine, urea, aspartate aminotransferase (AST), and alanine aminotransferase (ALT) were measured using corresponding detection kits (MilliporeSigma) following manufacturers' protocols.
The in vivo toxicity of the OCholB LNPs was further examined by measuring body weight change and biological functions of kidney and liver through serum biochemical tests using Balb/c mice. 4-6 weeks old Balb/c mice (n=3) were injected with blank 75-OCholB, 76-OCholB and 77-OCholB LNPs (50 μg LNPs for each injection) through tail vein at day 1 and day 5, body weights were monitored for 14 days, and blood were collected and analyzed at day 14.

[3] abbreviates: (−30)GFP-Cre 25 nM/1.7 μg mL^−1.
Setting [4] is: (−30)GFP-Cre 50 nM/3.4 μg mL^−1.
[5] abbreviates: (−30)GFP-Cre 100 nM/6.6 μg mL^−1.

Like-named read-outs stand apart in the source and are kept apart here.

In general, cell viability refers to a read-out of living cells in per cent, often relative to untreated cells. For `CCN(CC)CCN(CCC(=O)OCCSSCCNC(=O)OC1CCC2(C)C(=CCC3C2CCC2(C)C(C(C)CCCC(C)C)CCC32)C1)CCC(=O)OCCSSCCNC(=O)OC1CCC2(C)C(=CCC3C2CCC2(C)C(C(C)CCCC(C)C)CCC32)C1` (centres unmarked) [Lipidoid 75-OCholB], the “GFP^+ cells” value in series [1] is “particular advantages over Lpf2k”; in series [1] (listed as mRNA/75-OCholB), 50.1%. The values for the cell viability with HeLa-DsRed cells (setting [3]), in the series on HeLa-DsRed cells (setting [4]) and in the series with HeLa-DsRed cells (setting [5]) were 95.5%, 91.8% and 83.1%, respectively. In the series on HeLa-DsRed cells, the cell morphology changes entry was “less affected”. For the same molecule, the “serum concentrations of creatinine, urea, AST and ALT” value (shortened to “serum concentrations of creatinine”) in series [2] is “very similar to control mice”. Also, the “body weight vs untreated control group” value in series [2] was “negligible differences”.

In the case of `CC(C)CCCC(C)C1CCC2C3CC=C4CC(OC(=O)NCCSSCCOC(=O)CCN(CCC(=O)OCCSSCCNC(=O)OC5CCC6(C)C(=CCC7C6CCC6(C)C(C(C)CCCC(C)C)CCC76)C5)CCC5CCCN5C)CCC4(C)C3CCC12C` (centres unmarked) [Lipidoid 77-OCholB], in series [1], the “GFP^+ cells” value is given as “particular advantages over Lpf2k”. The cell viability came to 100.9% in the series with HeLa-DsRed cells (setting [3]), 96.6% with HeLa-DsRed cells (setting [4]) and 98.6% with HeLa-DsRed cells (setting [5]). Further, in the series with HeLa-DsRed cells, the cell morphology changes result is “less affected”. Also, the “serum concentrations of creatinine” value in series [2] was “very similar to control mice”. Also, the “body weight vs untreated control group” value in series [2] was “negligible differences”.

In the case of `CC(C)CCCC(C)C1CCC2C3CC=C4CC(OC(=O)NCCSSCCOC(=O)CCN(CCC(=O)OCCSSCCNC(=O)OC5CCC6(C)C(=CCC7C6CCC6(C)C(C(C)CCCC(C)C)CCC76)C5)CCN(C)C)CCC4(C)C3CCC12C` (centres unmarked) [Lipidoid 78-OCholB], the “GFP^+ cells” value in series [1] is recorded as “particular advantages over Lpf2k”.

For `CC(C)CCCC(C)C1CCC2C3CC=C4CC(OC(=O)NCCSSCCOC(=O)CCN(CCC(=O)OCCSSCCNC(=O)OC5CCC6(C)C(=CCC7C6CCC6(C)C(C(C)CCCC(C)C)CCC76)C5)CCN5CCCC5)CCC4(C)C3CCC12C` (centres unmarked) [Lipidoid 76-OCholB], the “GFP^+ cells” value in series [1] came to 7.7%. For the same molecule, the cell viability with HeLa-DsRed cells (setting [3]) is reported as 97.8%; in the series with HeLa-DsRed cells (setting [4]), 98.2%; in the series on HeLa-DsRed cells (setting [5]), 97.2%. In addition, the cell morphology changes result with HeLa-DsRed cells is on record as “less affected”. In addition, in series [2], the “serum concentrations of creatinine” value is on record as “very similar to control mice”. Also, the “body weight vs untreated control group” value in series [2] was “negligible differences”.
